Broadly, the IC50 is the point on the concentration scale where inhibition reaches its midpoint.

These results are taken from patent US5869515A, “1,3-dihydro-2H-imidazol-2-one compounds” (Janssen Pharmaceutica N.V., priority 1995, dated 1999).

Some results are limits rather than exact numbers.

For test [1], the system named is dextran-induced oedema formation in mouse ear. In words: Dextran-Induced Oedema Formation in Mouse Ear. In kind it is in vivo, male Swiss mice. The settings on record: oral, mice, 1 h before i.v. dextran T500 and pontamine sky-blue, compared with background extravasation, read-out: % inhibition of the extravasation of the dye. The protocol: Dextran-Induced Oedema Formation in Mouse Ear
Systemic injection of dextran T500 in normal, non-sensitized mice elicits increased vascular permeability, leading to extravasation and oedema of the extremities. When dextran is injected together with a blue dye, blueing of the ears is the most prominent feature of oedematous response.
Male Swiss mice weighing 24-26 g were orally pretreated with the test compound dissolved in PEG-200 at different concentrations or solvent. One hour later, the mice were given an intravenous injection with an isotonic saline solution containing 12 mg/ml dextran T500 and 2.6 mg/ml pontamine sky-blue dye, in a volume of 0.1 ml per 10 g body weight. One hour and forty-five minutes later, the animals are sacrificed by ether and their ears removed. Extraction and quantification of the extravasated dye is done as described by Van Wauwe and Goossens (Drug Dev. Res. 1986, 8, 213-218).
The extravasation of the dye is characterized by the blueing value which is defined as the concentration of the extracted dye in both ears. The background blueing value was determined once as the mean blueing value obtained by injecting a group of mice with a saline solution containing only dextran T500 and the blue dye. Table 2 lists the percentage inhibition of the extravasation of the dye when compared with the background extravasation of the dye when the test compound was administered at a dose of 5 mg/kg.

Test [2] addresses T1, recombinant human MNL phosphodiesterase type IV B (Homo sapiens, UniProt Q07343).
T1 construct: made in house
Description: Inhibition of Recombinant Human Mononuclear Lymphocyte (MNL) Phosphodiesterase Type IV B Produced in Insect Cells with a Baculovirus Vector. It is filed as biochemical. The settings on record: 0.8 μM 3H-cAMP, pH 8, 10 min, 37° C., 1% DMSO; read-out: IC50 value, recombinant human MNL phosphodiesterase PDE IV B. The protocol: Inhibition of Recombinant Human Mononuclear Lymphocyte (MNL) Phosphodiesterase Type IV B Produced in Insect Cells with a Baculovirus Vector The alleviating and/or curing effect of the instant compounds on allergic and atopic diseases was assessed by an in vitro assay system to detect an inhibiting effect on the recombinant human MNL phosphodiesterase type IV B. Seventy-two hours after infection with recombinant baculovirus, the insect cells were harvested and pelleted at 500 g for 5 minutes. The cells were lysed in 10 ml lysis-buffer consisting of 20 mM Tris, 10 mM EGTA, 2 mM Na2 EDTA, 1% Triton-X-100, 1 mM Na3 VO4, 10 mM NaF, 2 μg/ml of leupeptine, pepstatine and aprotinine, 0.3 μg/ml benzamidine and 100 μg/ml TPCK pH 7.5. After 5 minutes on ice, solubilized cells were centrifuged at 4000 rpm for 15 minutes at 4° C. The resulting supernatant was filtered through a 0.45 μm filter (Millipore) and brought to TBS buffer (50 mM Tris, 150 mM NaCl pH 7.4). […] The inhibiting effect of the present compounds on recombinant human MNL phosphodiesterase PDE IV B was measured at different concentrations of the instant compounds. The IC50 values (expressed in M) were calculated graphically from the thus obtained inhibition values.

T1 sequence (Q07343 1-564 isoform Q07343-2): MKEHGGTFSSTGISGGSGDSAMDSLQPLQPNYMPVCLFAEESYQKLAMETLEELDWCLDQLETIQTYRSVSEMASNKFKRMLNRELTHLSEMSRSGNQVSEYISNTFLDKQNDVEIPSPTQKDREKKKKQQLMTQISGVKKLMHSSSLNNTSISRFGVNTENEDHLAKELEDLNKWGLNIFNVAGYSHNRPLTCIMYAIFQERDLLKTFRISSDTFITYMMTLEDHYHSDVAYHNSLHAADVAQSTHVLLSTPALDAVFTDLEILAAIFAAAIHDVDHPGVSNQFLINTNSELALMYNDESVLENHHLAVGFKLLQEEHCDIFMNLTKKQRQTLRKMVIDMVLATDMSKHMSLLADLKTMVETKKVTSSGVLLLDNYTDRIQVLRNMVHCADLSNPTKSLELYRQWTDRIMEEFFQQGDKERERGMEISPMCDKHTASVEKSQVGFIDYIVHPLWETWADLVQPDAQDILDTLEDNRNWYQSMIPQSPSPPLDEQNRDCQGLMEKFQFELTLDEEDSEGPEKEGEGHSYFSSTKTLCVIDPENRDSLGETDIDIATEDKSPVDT

Regarding `COc1ccc(C(=O)CN2CCN(C3CCCCO3)C2=O)cc1OC` (racemic) [Compound 8, (±)-1-[2-(3,4-dimethoxyphenyl)-2-oxoethyl]-3-(tetrahydro-2H-pyran-2-yl)-2-imidazolidinone], in test [1], the inhibition in vivo at 5 mg/kg worked out at 5.2%. Turning to `COc1ccc(C(=O)Cn2ccnc2O)cc1OC1CCCC1` [Compound 1, 1-[2-[3-(cyclopentyloxy)-4-methoxyphenyl]-2-oxoethyl]-1,3-dihydro-2H-imidazol-2-one], the IC50 in test [2] is less than 1 µM. For the same compound, in test [1], the inhibition in vivo at 5 mg/kg was 48.3%.

Consider `CCOC(=O)n1ccn(CC(=O)c2ccc(OC)c(OC3CCCC3)c2)c1=O` [Compound 2, ethyl 3-[2-[3-(cyclopentyloxy)-4-methoxphenyl]-2-oxoethyl]-2,3-dihydro-2-oxo-1H-imidazole-1-carboxylate], for which the inhibition in vivo at 5 mg/kg in test [1] is 55.6%.

As to `C=C(Cn1cc[nH]c1=O)c1ccc(OC)c(OC2CCCC2)c1` [Compound 4, 1-[2-[3-(cyclopentyloxy)-4-methoxy-phenyl]-2-propenyl]-1,3-dihydro-2H-imidazol-2-one], the IC50 in test [2] was less than 1 µM. Take `COc1ccc(C(=O)Cn2ccn(Cc3ccccc3)c2=O)cc1OC` [Compound 5, 1-[2-(3,4-dimethoxyphenyl)-2-oxoethyl]-1,3-dihydro-3-(phenylmethyl)-2H-imidazol-2-one]: in test [1], the inhibition in vivo at 5 mg/kg worked out at 28.7%. On the same count and under the same terms, next, `COc1ccc(C(=O)CN2CCNC2=O)cc1OC` [Compound 7, 1-[2-(3,4-dimethoxyphenyl)-2-oxoethyl]-2-imidazolidinone]: 22.6%. On the same count and under the same terms, next, `COc1ccc(/C(=C\C#N)CN2CCNC2=O)cc1OC` [Compound 9, (E)-3-(3,4-dimethoxyphenyl)-4-(2-oxo-1-imidazolidinyl)-2-butenenitrile]: 53.8%; `COc1ccc(Cn2ccn(CC(=O)c3ccc(OC)c(OC4CCCC4)c3)c2=O)cc1` [Compound 10, 1-[2-[3-(cyclopentyloxy)-4-methoxyphenyl]-2-oxoethyl]-1,3-dihydro-3-[(4-methoxyphenyl)methyl]-2H-imidazol-2-one]: 56%. Same read-out and setting: next, `COc1ccc(C(=O)Cn2ccn(C(c3ccccc3)c3ccccc3)c2=O)cc1OC` [Compound 11]: 34.6%. For the compound `COc1ccc(Cn2ccn(CC(=O)c3ccc(OC)c(OC)c3)c2=O)c(OC)c1` [Compound 12], in test [1], the inhibition in vivo at 5 mg/kg is 26.4%. Same read-out and setting: next, `COc1ccc(C(=O)CN2CCNC2=O)cc1OC1CCCC1` [Compound 13]: 27.9%; `CCOC(=O)N1CCN(CC(=O)c2ccc(OC)c(OC)c2)C1=O` [Compound 15]: 19.2%.
